Assay results from patent publication US6509035B1, “Oral preparation of coenzyme a useful for lowering blood lipid and a method producing for same” (Shanghai Materia Medica Bioengineering Institute, priority 1999, dated 2003).

Tests used:
[1] = test system: serum triglyceride; assay: Effect of CoA on serum triglyceride in patients with hyperlipemia; format: in vivo, human; details: oral 35 units three times daily
Experimental: (§1) Object: Individuals with plasma lipid more than 90% of upper limit of normal person were chosen, i.e. serum cholesterol >230 mg %, or triglyceride >160 mg %, 39 patients in total, 14 male, aged from 28-65; 25 female, aged from 32 to 70.
(§2) Oral dosage of CoA: one tablet per time, 35 units per tablet, administered on empty stomach three times daily. Three months was used as a course of treatment. During the course of the administration, the patients had diet same as the normal and stopped the administration of any other lipid-lowering medicament.
(§3) Measurement of plasma lipid: venous blood samples were taked from 12-14 hrs-fasting patients before administration and one month and 3 months after administration. Concentration of serum cholesterol and triglyceride were measured after isolation of serum. In the meantime, each patients' medical history was inquired, blood pressure was measured and liver function was determined.
(1) Effect on triglyceride: Statistical analysis were carried out on the difference of the concentration of serum triglyceride of hyperlipemia patients between before and after the administration of CoA by individual comparison test.

[2] = test system: peripheral platelet; assay: Effect of CoA on peripheral platelet of experimental dogs; format: in vivo, dog
Experimental: Object: 10 experimental dogs were used and devided into 2 groups of 5 to which oral or injection preparations of CoA was adminisered, respectively. Their peripheral platelet samples were taken and tested at intervals to observe the differences between before and after administration.
Dosage of CoA: Oral administration group, 100 units per time, twice per day. Injection administration group, 35 units per time, twice per day.
Result: Statistical analysis were carried out on the changes of the number of platelets before and after the administration of CoA to dogs by individual comparison test. It is noted that exogenous CoA can improve the level of platelet in experimental dogs in a short time either administered by oral or injection route.

[3] = test system: serum cholesterol; assay: Effect of CoA on serum cholesterol in patients with hyperlipemia; format: in vivo, human; details: oral 35 units three times daily
Experimental: as §1, §2, §3
(2) Effect on cholesterol: Statistical analysis was carried out on the difference of the concentration of serum cholesterol of patients with hyperlipemia between before and after the administration of CoA by individual comparison test.

## CC(C)(COP(=O)(O)OP(=O)(O)OC[C@H]1O[C@@H](n2cnc3c(N)ncnc32)[C@H](O)[C@@H]1OP(=O)(O)O)[C@@H](O)C(=O)NCCC(=O)NCCS [CoA, coenzyme A]
[1]; one month
  Average difference of triglyceride concentration between before and after administration (decrement): 64.2 mg %
[1]; three months
  Average difference of triglyceride concentration between before and after administration (decrement): 75.5 mg %
[2]; injection administration group, day 8 (P<0.01)
  Average increment of platelets: 170,800 /mm^3
[2]; injection administration, 35 units twice per day, sampling time 1
  Average increment of platelet: 0.28 10,000/mm^3
[2]; injection administration, 35 units twice per day, sampling time 3
  Average increment of platelet: 7.44 10,000/mm^3
[2]; injection administration, 35 units twice per day, sampling time 6
  Average increment of platelet: 5.48 10,000/mm^3
[2]; injection administration, 35 units twice per day, sampling time 8
  Average increment of platelet: 17.08 10,000/mm^3
[2]; injection administration, 35 units twice per day, sampling time 10
  Average increment of platelet: 11.36 10,000/mm^3
[2]; injection administration, 35 units twice per day, sampling time 13
  Average increment of platelet: 3.68 10,000/mm^3
[2]; oral administration group, day 6 (P<0.05)
  Average increment of platelets: 133,000 /mm^3
[2]; oral administration, 100 units twice per day, sampling time 1
  Average increment of platelet: 8.64 10,000/mm^3
[2]; oral administration, 100 units twice per day, sampling time 3
  Average increment of platelet: 8.06 10,000/mm^3
[2]; oral administration, 100 units twice per day, sampling time 6
  Average increment of platelet: 13.3 10,000/mm^3
[2]; oral administration, 100 units twice per day, sampling time 8
  Average increment of platelet: 4.25 10,000/mm^3
[2]; oral administration, 100 units twice per day, sampling time 10
  Average increment of platelet: 1.96 10,000/mm^3
[2]; oral administration, 100 units twice per day, sampling time 13
  Average increment of platelet: −2.52 10,000/mm^3
[3]; one month
  Average difference of serum cholesterol concentration between before and after administration (decrement): 25.7 mg %
[3]; three months
  Average difference of serum cholesterol concentration between before and after administration (decrement): 22.1 mg %
